# Results taken from US20220412958A1, “METHOD FOR EVALUATING SAFETY OF SUBSTANCE IN VITRO USING HUMAN IMMORTALIZED MYELOID CELLS” (MiCAN Technologies Inc., priority 2019, published 2022).
# Assays:
# iPS-ML2 [1] = experiment: Evaluation test of skin sensitizing property and/or pyrogenic property: IL-6/IL-8 production by immortalized monocytes (ELISA); type: cell-based, human; settings: iPS-ML2, 6 hr after addition, culture supernatant ELISA; negative control = medium alone; test substance up to 200 μg/mL
# From the text: (§1) 1. […] 2. […] This operation was repeated once more. 3. […] 4. […] 5. […] 6. […] 7. […] 8. […] 9. […] 10.
# iPS-ML2 [2] = experiment: Detection test of skin sensitizer and/or pyrogen: IL-6/IL-8 production by immortalized monocytes (ELISA); type: cell-based, human; settings: iPS-ML2, both 6 hr and 24 hr after culturing; negative control = culture medium alone
# From the text: as §1
# mouse = settings: in vivo; cited from earlier work
compound,measurement,setting,value
"CC(O)C(=O)O (centres unmarked) [N7, Lactic acid]",production of IL-6 compared with the negative control,iPS-ML2 [1],did not show production
same,production of IL-8 compared with the negative control,iPS-ML2 [1],did not show production
Staphylococcus aureus Cowan 1 [SAC],production amount of IL-6 in the culture supernatant with respect to the negative control,iPS-ML2 [2],increased as the dilution rate became smaller
same,production amount of IL-8 in the culture supernatant with respect to the negative control,iPS-ML2 [2],increased as the dilution rate became smaller
"Nc1ccc(N)cc1 [P2, 4-Phenylenediamine]",skin sensitizing property in LLNA,mouse,have skin sensitizing property
